The record followed here is patent US10336757B2, “Treatment of neurodegenerative diseases through inhibition of HSP90” (Sloan-Kettering Institute for Cancer Research, priority 2006, dated 2019).

Molecules are shown by their SMILES.

Data set [1] has as its system p35 and tau phosphorylation. Briefly: Five day PU-DZ8 treatment of nine-month old JNPL3 (P301L tau) mice, whole brain. It counts as in vivo. The source says:
Transgenic mice: Transgenic mice, JNPL3 line (59) overexpressing mutant human tau (P301L, 4R0N) were used in this study, Mice were heterozygous and on a mixed hybrid genetic background composed of C57BL/DBA2/SW, as published in ref. 59. These mice develop NFTs in the basal telencephalon, diencephalon, brainstem, and spinal cord, with severe pathology accompanied by degeneration in the spinal cord leading to dystonia, paralysis, and death in mice>12 months in age. Nine month-old male JNPL3 mice (n=2) were treated intraperitoneally with PU-DZ8 or vehicle for 5 days. Mice were sacrificed 12 h after last treatment by cervical dislocation under anesthesia.
To further examine the effect of Hsp90 on tau phosphorylation, we used the JNPL3 line of mice expressing mutant (P301L) tau protein (59). Genetic analyses have linked mutations in the tau gene to FTDP-17 (60, 61). Over 20 distinct pathogenic mutations have been identified, with P301L as the most common mutation in tauophaties (33). […] The tau protein in JNPL3 is predominantly human and is phosphorylated at multiple sites: T181 (AT270), S202/T205 (AT8), T212 (AT100), T231 (AT180), S262, S396/S404, S409 and 5422 (59, 62). […] The degree of p35 expression translated well into alleviation of phosphorylation. […] However, in mice where effects were more prominent and p35 expression declined to approximately 20% as compared to control, a significant effect on tau phosphorylation at S202/T205 and T212/S214 and a 50% reduction on T231 was observed. We could not detect a significant amount of tau phosphorylation at T181, site found to be hyperphosphorylated in PHF, tangles and neurofilaments (65). Again, whole brain expression of cdk5 was not affected (FIG. 3).

For data set [2], the system named is mutant tau (HT7), p35, cdk5, Hsp70. Briefly: One dose PU-DZ8 in JNPL3 mice, S1 and P3 brain fractions by Western blot. It counts as in vivo, mouse. To be noted: for soluble mutant tau (HT7), S1 fraction, subcortical brain region: from 4 h, maintained up to 36 h. As for the experimental part:
JNPL3 female mice 6 months of age were treated IP with the Hsp90 inhibitor PU-DZ8 (75 mg/kg) and sacrificed various times as indicated in FIG. 9. Brains were divided in subcortical and cortical regions and processed using the Greenberg and Davies extraction protocol (77). Sarkosyl soluble fractions (S1) extracted from the subcortical region were analyzed by WB for p35, cdk5, mutant tau (HT7), Hsp90 and Hsp70. Protein bands were normalized to actin and plotted as relative change from untreated mice.
To investigate whether the human TauP301L present in the JNPL3 line of mice is a sensitive target for Hsp90 inhibition, animals were treated with the brain-barrier permeable Hsp90 inhibitor PU-DZ8. This agent is a higher-potency water soluble derivative of PU24FC1 (EC50JNPL3 brain Hsp90=70 nM). One dose of PU-DZ8 (75 mg/kg) was administered intraperitoneally (i.p.) to female mice of 2.5-4 months in age (n=32) and animals were sacrificed in the interval of 0 to 36 h. Both aggregate-free Tau (S1) and insoluble Tau (P3) fractions were prepared from the subcortical and cortical regions of these mice. Human Tau levels were assessed by immunobloting with a human specific anti-Tau antibody (HT-7). […] We next examined in a 4- to 6-month old mouse group (n=15) whether the stability of mTau as present in tau aggregates (P3 fraction) was additionally regulated by Hsp90.
For experiments designed to test the kinetics of mTau and p35 modulation by Hsp90 inhibitors, animals were administered intraperitoneally (i.p.) 75 mg/kg PU-DZ8 in PBS (6% DMSO). Mice were sacrificed by CO2 euthanasia at the indicated times following PU-DZ8 administration. Hemibrains were separated into cortico-limbic (cortex, amygdale and hippocampus) and subcortical (basal ganglia, diencephalon, brain stem and cerebellum) regions, quickly frozen on dry ice and stored at −80° C. and processed. In summary, each brain piece was weighed and homogenized in three volumes of Tris-buffered saline (TBS) containing protease and phosphatase inhibitors (25 mM Tris-HCl, pH 7.4, 150 mM NaCl, 1 mM EDTA, 1 mM EGTA, 5 mM sodium pyrophosphate, 30 mM β-glycerophosphate, 30 mM sodium fluoride, 1 mM phenylmethylsulfonyl fluoride (PMSF)). The homogenates were centrifuged at 27,000 g for 15 min at 4° C. Supernatants were collected as S1 fractions, and the pellets (P1) were re-homogenized in three volumes of salt/sucrose buffer (0.8 M NaCl, 10% sucrose, 10 mM Tris/HCl, pH 7.4, 1 mM EGTA, 1 mM PMSF) and centrifuged as above. The resulting pellets were discarded and the supernatants were incubated with sarkosyl (Sigma, St Louis, Mo., USA; 1% final concentration) for 1 h at 37° C. The sarkosyl mixtures were then centrifuged at 150,000 g for 30 min at 4° C. The supernatants (S2 fraction) were collected, and the pellets (P3) were resuspended in 50 μL 2% SDS in TBS and stored at −80° C. for western blotting. Proteins were analyzed by Western blot.

`CC(C)NCCCn1c(Cc2cc3c(cc2I)OCO3)nc2c(N)nc(F)nc21` [PU-DZ8]: the “whole brain expression of cdk5” value in data set [1] (5 days i.p.) is recorded as “not affected”. The “compound levels in brain” value in data set [1] (5 days i.p., 12 h after last treatment) is given as “Pharmacologically relevant levels”. In addition, the “p35 expression as compared to control” value in data set [1] (5 days i.p., mice where effects were more prominent) is on record as “approximately 20%”. In data set [1] (5 days i.p., whole brain), the “reduction in p35 levels” value was determined as 50%; the “tau phosphorylation at putative cdk5 sites S202/T205 and T212” value is given as “significant amelioration”. The “phosphorylation on T212/S214 (Ab AT-100)” value in data set [1] (at 50% reduction in p35 levels) is recorded as “almost completely”. The “tau phosphorylated at T231 (Ab AT-180)” value in data set [1] (at a reduction by 50% in p35 expression) is “No significant effect”. In addition, in data set [1] (mice where p35 declined to approximately 20% of control), the “reduction of tau phosphorylation on T231” value was found to be 50%. In addition, the “chaperone levels (hsp70)” value in data set [2] (one dose 75 mg/kg IP) is reported as “hsp70 increase”. In data set [2] (one dose 75 mg/kg i.p.), the cdk5 expression entry is reported as “No significant changes”; the “expressions of Akt and Raf-1” value was “not altered”; the “soluble mutant tau (HT7), S1 fraction, subcortical brain region” value was “significant decrease”. Moreover, the “insoluble and hyperphosphorylated Tau (P3 fraction)” value in data set [2] (one dose 75 mg/kg i.p., 4- to 6-month old mice) was “significant reduction”. Besides, the “soluble mutant tau (HT7), S1 fraction, subcortical brain region” value in data set [2] (one dose 75 mg/kg i.p., listed as DZ8) is reported as “degradation of the mutant protein”.
